Peptide text beside a SMILES is read from it. * marks the point of attachment. Cbz = O=C(OCc1ccccc1)*
Assays:
Bcl-xL = target: T1, Bcl-xL (Mus musculus, UniProt Q64373); assay: Western blot of Bcl-xL degradation in NIH-3T3 cells; type: cell-based; settings: for effect of pretreatment on SIAIS361034-induced Bcl-xL degradation: pretreated 2 h with ABT-263 1 µM, Pomalidomide 10 µM or MG132 1 µM, then SIAIS361034 24 h
T1 construct: endogenous in cells; host or cells: NIH-3T3
Protocol: (§1) Cells were lysed in cell lysis buffer (50 mM Tris pH 8.0, 150 mM NaCl, 10% glycerol, 1 mM EDTA, 50 mM NaF, and 0.1% NP-40) supplemented with protease and phosphatase inhibitors. Total protein extracts of tissues were generated in radioimmunoprecipitation (RIPA) assay lysis buffer containing complete protease and phosphatase inhibitor cocktail. Protein content was quantified using the Pierce BCA Protein Assay Kit (#23225, Thermo Fisher Scientific). The proteins were separated by SDS-PAGE, electrophoretically transferred to polyvinylidene difluoride (PVDF) blotting membranes (#LC2002, Thermo Fisher Scientific), and subjected to routine immunoblot analysis with primary antibodies as follows: anti-Bcl-2 (#15071), anti-Mcl-1 (#94296), anti-VHL (#68547), anti-CRBN (#71810), and anti-Sufu (#2522) were obtained from Cell Signaling Technology (Danvers, Massachusetts, USA); anti-Bcl-xL (#ab32370), anti-Gli1 (#ab134906), and anti-Smoothened (#ab236465) were obtained from Abcam (Cambridge, CB2 0AX, UK); anti-GAPDH (#60004-1-Ig) and anti-β-tubulin (#10094-1-AP) were purchased from Proteintech Group, Inc. (Rosemont, IL 60018, USA). The results were quantified by densitometry using ImageJ software (NIH).

platelets = assay: Platelet toxicity assay in C57BL/6J mice; type: in vivo, mouse; settings: SIAIS361034 single i.p. 50 and 100 mg/kg, ABT-263 single p.o. 100 mg/kg, 8 h and 24 h
Text: Blood was collected at different time points via retro-orbital bleeding in anticoagulation tube. Platelets or different blood cells were enumerated using BM800 blood analyzer (Bowlinman Sunshine).

NF-κB signaling pathway = assay: NF-κB luciferase reporter assay in 293T cells; type: cell-based; settings: TNF-α 10 ng/mL, 6 h, SIAIS361034 10 μM, BAY 11-7082 20 μM
Protocol: (§2) Cells seeded in 96-well plates were treated with various treatments as indicated. The luciferase activity in the cell lysates was measured using Dual-Luciferase Reporter Assay System (Promega, Madison, WI, USA) according to the manufacturer's instructions in a luminometer (Molecular Devices, Sunnyvale, CA). The firefly luciferase values were normalized to Renilla values. […]
Data represent mean ± SD (n = 3). (B) NF-κB luciferase analysis of the effect of SIAIS361034 on NF-κB signaling pathway in 293T cells.The 293T cells were transfected with NF-κB luciferase reporter and Renilla-TK plasmids and […]
μM) for 6 h. Data represent mean ± SD (n = 3). […]
(§3) Data represent mean ± SD (n = 3).
(§4) (1 picture or pasted object on this page, not shown here)

[1] = system: bone growth of young mice; assay: Bone growth of young mice (body weight, Micro-CT, H&E, IHC); type: in vivo, mouse; settings: for body size: 5-week-old mice after treatment from P12 to P16; for femur length (Micro-CT, in words): mice at 6 weeks of age, treated P12 to P16; for levels of Bcl-xL in femurs (IHC): mice treated P12 to P16; for expression levels of Gli1 in femurs (IHC): mice treated P12 to P16, compared with Vehicle
Protocol: Skeleton Micro-CT images of mice were taken under anesthesia. The femurs were fixed and stored in 4% PFA at 4 °C. Mice and femurs were scanned using Inveon PET-CT (Siemens). Bone tissues were computed with Inveon Acquisition Workplace (IAW). Image data were visualized and analyzed by Inveon Viewer.
Femurs were fixed in 4% PFA and decalcified in 14% EDTA for 2 weeks at 4 °C. Bone tissues were embedded in paraffin. Thin sections were stained with hematoxylin and eosin (H&E) according to the manufacturer's instructions. For immunohistochemistry (IHC), paraffin-embedded sections of femurs were baked at 60 °C for 20 min, deparaffinized by xylene for 25 min, rehydrated through ethanol series, and incubated with citrate buffer at 95 °C for 20 min for antigen retrieval. Sections were incubated with the primary antibodies as indicated overnight at 4 °C, followed by goat anti-rabbit secondary antibody. The primary antibodies used in this study include Bcl-xL (1:2000, ab178844, Abcam) and Gli1 (1:100, 101156-T10, Sino Biological).

[2] = system: Hh pathway (Gli-luciferase) provoked by Gli2; assay: Dual luciferase reporter assay, Hh activity initiated by ectopic Gli2-HA in light II cells; type: cell-based; settings: for IC50: ectopic Gli2-HA, 36 h
Text: (§5) The TCF/LEF luciferase reporter plasmid, NF-κB luciferase reporter plasmid, and TK-Renilla luciferase plasmid were purchased from Promega (Madison, WI, USA). Smo plasmid was purchased from Origene (Rockville, MD, USA). The Smo mutant plasmids were generated from wild type Smo plasmid using QuickChange Site-Directed Mutagenesis kit from Agilent (Santa Clara, CA, USA) and confirmed by sequencing. Information on Smo mutants plasmids is provided in Supplementary data 2. The Gli1 plasmid and Gli2-HA plasmid were obtained from Addgene (Cambridge, MA, USA). Transient transfections were performed by Lipofectamine 2000 reagent from Invitrogen (Grand Island, NY, USA) according to the manufacturer's instructions.
(§6) Cells seeded in 96-well plates were treated with various treatments as indicated. The luciferase activity in the cell lysates was measured using Dual-Luciferase Reporter Assay System (Promega, Madison, WI, USA) according to the manufacturer's instructions in a luminometer (Molecular Devices, Sunnyvale, CA). The firefly luciferase values were normalized to Renilla values.

[3] = system: SmoA1 (Smo W539L) medulloblastoma tumor; assay: SmoA1 medulloblastoma allograft in nude mice; type: in vivo, mouse
Text: For in vivo SmoA1 MB allograft studies, SmoA1 spontaneous MB tumors were obtained from ND2:SmoA1 transgenic mice as previously described. Male nude mice (4 to 5 weeks of age) were purchased from Shanghai Lingchang Biotechnology Co. (Shanghai, China). Spontaneous tumors were harvested and subcutaneously allografted into nude mice. When the tumor volumes reached approximately 2000 mm^3, they were harvested and further subcutaneously allografted into nude mice. When the tumor volumes reached about 150 to 200 mm^3, the tumor-bearing mice were randomly assigned into vehicle and treatment groups. Mice were weighed every 3 days. Tumor size was measured once every 3 days using microcaliper. Tumor volume (V) was determined using the following formula: V = (L×W^2) ×0.5, where L is length, and W is width in mm. Tumor tissues were harvested 6 h after the last dosage to examining Gli1 mRNA expression and protein levels. SIAIS361034 for i.p. administration was formulated in 0.5% sodium carboxymethyl cellulose (CMC-Na). All in vivo studies above were approved by and conformed to the policies and regulations of the Animal Care and Use Committee of Fudan University, China.

[4] = system: hair growth and Hh pathway activity in skin; assay: Depilatory mouse model; type: in vivo
Protocol: For Depilatory model studies, male C57BL/6J mice (7 to 8 weeks of age) were purchased from Shanghai Lingchang Biotechnology Co. (Shanghai, China). After 2 days of acclimation, only healthy mice were used in the experiment. The back skin of the anesthetized mice was shaved and depilated using the depilatory Nair (Church & Dwight Co., Inc.). After 4 days, the depilated mice were randomized into groups for treatments as indicated. The back skin phenotypes were recorded by taking pictures every 3 days. Skin tissues were harvested 6 h after the last dosage to examining Gli1 mRNA expression as well as Gli1 and Bcl-xL protein levels.

[5] = system: medulloblastoma sensitive to Smo inhibitors; parameters: method as in PMID 19716296; settings: GDC-0449 50 mg/kg; cited from earlier work
[6] = system: Hh pathway (Gli-luciferase) provoked by Smo WT / Smo mutants; assay: Dual luciferase reporter assay, Hh activity induced by ectopic Smo WT or Smo mutants in light II cells; type: cell-based; settings: Smo WT, D473H, H231R, W281C, W535L, L412F, F460L, GDC-0449 10 μM (Figure S3B-D)
Text: as §5, §6

Wnt signaling pathway = assay: TCF/LEF luciferase reporter assay in LS174T cells; type: cell-based; settings: PGE2 1 μM, 24 h, SIAIS361034 10 μM, H-89 20 μM
Protocol: as §2
μM) for 6 h. Data represent mean ± SD (n = 3). (C) TCF/LEF luciferase analysis of the effect of SIAIS361034 on Wnt signaling pathway in LS174T cells. The LS174T cellswere transfected with TCF/LEF luciferase reporter and Renilla-TK plasmids and […]
as §3, §4

Gli1 = assay: Western blot of Gli1 in light II cells; type: cell-based; settings: 1 µM
Protocol: as §1

[7] = system: Hh pathway (Gli-luciferase) in light II cells; assay: Dual luciferase reporter assay, Gli-luciferase provoked by SAG in light II cells; type: cell-based; settings: SAG 100 nM; for effect of pretreatment on Gli-luciferase activity suppressed by SIAIS361034: pretreated 2 h with MG132 1 µM or Pomalidomide 10 µM, then SIAIS361034 1 µM
Protocol: as §6

T1 sequence (Q64373 whole entry): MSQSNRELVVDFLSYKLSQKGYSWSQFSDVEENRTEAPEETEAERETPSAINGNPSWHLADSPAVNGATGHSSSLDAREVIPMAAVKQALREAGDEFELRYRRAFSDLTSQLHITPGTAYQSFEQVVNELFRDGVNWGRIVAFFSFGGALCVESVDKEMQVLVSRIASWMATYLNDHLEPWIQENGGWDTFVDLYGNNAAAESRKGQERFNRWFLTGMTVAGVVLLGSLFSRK

CC1(C)CCC(c2ccc(Cl)cc2)=C(CN2CCN(c3ccc(C(=O)NS(=O)(=O)c4ccc(N[C@H](CCN5CCOCC5)CSc5ccccc5)c(S(=O)(=O)C(F)(F)F)c4)cc3)CC2)C1 [ABT-263, reference compound]
effect of pretreatment on SIAIS361034-induced Bcl-xL degradation (Bcl-xL): abolished the SIAIS361034-induced Bcl-xL degradation | number of platelets (platelets): severe thrombocytopenia

Cc1ccc(S(=O)(=O)/C=C/C#N)cc1 [BAY 11-7082, reference compound]
NF-κB luciferase activity activated by TNF-α (NF-κB signaling pathway): significantly impeded

Cc1ncsc1-c1ccc([C@H](C)NC(=O)[C@@H]2C[C@@H](O)CN2C(=O)[C@@H](NC(=O)CCCCCC(=O)N2CCN(CC[C@H](CSc3ccccc3)Nc3ccc(S(=O)(=O)NC(=O)c4ccc(N5CCN(CC6=C(c7ccc(Cl)cc7)CCC(C)(C)C6)CC5)cc4)cc3S(=O)(=O)C(F)(F)F)CC2)C(C)(C)C)cc1 [DT2216]
body size [1]: smaller body sizes | femur length (Micro-CT, in words) [1]: obvious shortening of the femur | levels of Bcl-xL in femurs (IHC) [1]: reduced | expression levels of Gli1 in femurs (IHC) [1]: significantly suppressed | rate of weight growth ([1]; young mice treated from P12 to P16): decelerated the rate of weight growth

CS(=O)(=O)c1ccc(C(=O)Nc2ccc(Cl)c(-c3ccccn3)c2)c(Cl)c1 [GDC-0449, reference compound]
Hh activity evoked by ectopic expression of Gli2 [2]: no effect | IC50 [2]: > 10 µM | growth of SmoA1 tumors ([3]; nude mice, SIAIS361034 50 mg/kg, GDC-0449 50 mg/kg p.o.): obvious resistance | expression of Gli1 mRNA in tumor tissues ([3]; tumors harvested 6 h after the last dosage, RT-qPCR): no alteration | hair growth during depilation-induced hair regeneration ([4]; male C57BL/6J mice, administered after 4 days of depilation): significantly retarded hair growth | Gli1 and Bcl-xL protein levels in skin tissues ([4]; skin harvested 6 h after the last dosage, western blot): no effect on the levels of Bcl-xL | TGI [5]: 100% | Hh activity provoked by wild type Smo and Smo mutants [6]: little appreciable effect | body size [1]: smaller body sizes | femur length (Micro-CT, in words) [1]: obvious shortening of the femur | levels of Bcl-xL in femurs (IHC) [1]: No change | expression levels of Gli1 in femurs (IHC) [1]: significantly suppressed

O=S(=O)(NCCNC/C=C/c1ccc(Br)cc1)c1cccc2cnccc12 [H-89, reference compound]
TCF/LEF luciferase activity (Wnt signaling) activated by PGE2 (Wnt signaling pathway): significantly inhibited

Cc1sc2c(c1C)C(c1ccc(Cl)cc1)=N[C@@H](CC(=O)OC(C)(C)C)c1nnc(C)n1-2 [JQ1, reference compound]
Gli1 protein level (Gli1): reduced Gli1 protein

CC(C)C[C@@H](C=O)NC(=O)[C@H](CC(C)C)NC(=O)[C@H](CC(C)C)NC(=O)OCc1ccccc1 [MG132, reference compound] (Cbz-Leu-Leu-Leu-aldehyde)
effect of pretreatment on SIAIS361034-induced Bcl-xL degradation (Bcl-xL): obviously abolished SIAIS361034-induced Bcl-xL degradation | effect of pretreatment on Gli-luciferase activity suppressed by SIAIS361034 [7]: abolished the suppressed Gli-luciferase activity

Nc1cccc2c1C(=O)N(C1CCC(=O)NC1=O)C2=O (centres unmarked) [Pomalidomide, reference compound]
effect of pretreatment on SIAIS361034-induced Bcl-xL degradation (Bcl-xL): obviously abolished SIAIS361034-induced Bcl-xL degradation | effect of pretreatment on Gli-luciferase activity suppressed by SIAIS361034 [7]: abolished the suppressed Gli-luciferase activity

CN1C(=O)CCC(N2Cc3c(C#CCCCN4CCN(CCCNc5ccc(S(=O)(=O)NC(=O)c6ccc(N7CCN(CC8=C(c9ccc(Cl)cc9)CCC(C)(C)C8)CC7)cc6)cc5S(=O)(=O)C(F)(F)F)CC4)cccc3C2=O)C1=O (centres unmarked) [SIAIS361034NC]
Bcl-xL degradation (Bcl-xL; 1 µM, western blot): failed to degrade Bcl-xL | IC50 ([7]; 36 h, read-out: IC50 value inhibiting the Gli-luciferase activity provoked by SAG): 3.16 µM | IC50 [2]: 1.77 µM

Reference: publication PMC9691367, “The PROTAC selectively degrading Bcl-xL represents a novel Hedgehog pathway inhibitor with capacity of combating resistance to Smoothened inhibitors while sparing bone growth” (Theranostics, 2022)
